Reference: ChEMBL document CHEMBL5053540, “Synthesis and biological evaluation of isatin derivatives containing 1,3,4-thiadiazole as potent a-glucosidase inhibitors” (Bioorg Med Chem Lett, 2021)
pIC50, pKi: −log10 of the molar value. Active and inactive are the calls of the source. The rule behind the calls is not given here.

Experiments:
[1] = Inhibition of Saccharomyces cerevisiae alpha-glucosidase using pNPG as substrate
[2] = test system: Saccharomyces cerevisiae; assay: Non-competitive inhibition of Saccharomyces cerevisiae alpha-glucosidase assessed as decrease in Vmax without affecting Km using varying levels of p-NPG as substrate by Lineweaver-burk plot analysis
[3] = Non-competitive inhibition of Saccharomyces cerevisiae alpha-glucosidase assessed as inhibition constant by secondary re-plot of Lineweaver-burk plot analysis
[4] = test system: Saccharomyces cerevisiae; assay: Potency index, ratio of resveratrol IC50 to test compound IC50 for inhibition of Saccharomyces cerevisiae alpha-glucosidase using pNPG as substrate

Compound	pIC50 [1]	further results
N#Cc1ccccc1CN1C(=O)/C(=N\Nc2nncs2)c2ccccc21	< 3.70	–
O=C1/C(=N\Nc2nncs2)c2ccccc2N1Cc1ccccc1Br	4.88	–
O=C1/C(=N\Nc2nncs2)c2ccccc2N1Cc1ccccc1	4.68	–
O=C1/C(=N\Nc2nncs2)c2ccccc2N1Cc1ccc(Cl)cc1	5.51	inhibition [2]: Active; pKi [3]: 5.56; Ratio IC50 [4]: 7
COc1cccc(CN2C(=O)/C(=N\Nc3nncs3)c3ccccc32)c1	4.37	–
O=C1/C(=N\Nc2nncs2)c2ccccc2N1Cc1cccc(Cl)c1	5.14	–
COc1ccc(CN2C(=O)/C(=N\Nc3nncs3)c3ccccc32)cc1	4.34	–

Continued, in another order:

pIC50 [1]	Compound	further results
4.49	Cc1cccc(CN2C(=O)/C(=N\Nc3nncs3)c3ccccc32)c1	–
4.60	Cc1ccccc1CN1C(=O)/C(=N\Nc2nncs2)c2ccccc21	–
4.53	Cc1ccc(CN2C(=O)/C(=N\Nc3nncs3)c3ccccc32)cc1	–
4.73	O=C1/C(=N\Nc2nncs2)c2ccccc2N1Cc1ccccc1F	–
5.07	O=C1/C(=N\Nc2nncs2)c2ccccc2N1Cc1ccccc1Cl	–
4.66	Oc1ccc(/C=C/c2cc(O)cc(O)c2)cc1 [RESVERATROL]	–
< 3.70	N#Cc1cccc(CN2C(=O)/C(=N\Nc3nncs3)c3ccccc32)c1	–
